Converted amounts (≈) assume the structure as drawn.
How the values were obtained:
physchem = conditions: system solution buffer, pH 7.4
in vitro = conditions: human, plasma
Pseudomonas aeruginosa = assay: microbe, parasite or virus in culture
Enterococcus faecalis = assay: microbe, parasite or virus in culture
Escherichia coli = assay: microbe, parasite or virus in culture; conditions: K-12
[1] = system: Mycobacterium tuberculosis; assay: microbe, parasite or virus in culture; conditions: H37Rv, 168 h
[2] = molecular target: T1, Bifunctional epoxide hydrolase 2 (Homo sapiens, UniProt P34913)
T1 sequence (P34913 whole entry): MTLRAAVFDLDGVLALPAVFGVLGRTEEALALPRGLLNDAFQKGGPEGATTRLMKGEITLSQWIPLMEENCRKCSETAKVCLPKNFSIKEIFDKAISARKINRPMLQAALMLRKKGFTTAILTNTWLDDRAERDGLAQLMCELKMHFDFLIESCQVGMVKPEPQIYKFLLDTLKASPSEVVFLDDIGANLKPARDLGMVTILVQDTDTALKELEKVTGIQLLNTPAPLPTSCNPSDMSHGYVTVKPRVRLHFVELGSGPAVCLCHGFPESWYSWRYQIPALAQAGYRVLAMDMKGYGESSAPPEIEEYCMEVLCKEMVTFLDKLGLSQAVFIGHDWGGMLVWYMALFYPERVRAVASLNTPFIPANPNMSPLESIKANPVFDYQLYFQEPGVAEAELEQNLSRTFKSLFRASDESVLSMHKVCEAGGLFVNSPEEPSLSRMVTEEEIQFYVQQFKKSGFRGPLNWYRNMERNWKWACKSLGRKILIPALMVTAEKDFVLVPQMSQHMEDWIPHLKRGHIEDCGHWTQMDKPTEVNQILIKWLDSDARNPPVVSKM

Bacillus anthracis = assay: microbe, parasite or virus in culture; conditions: Sterne
Staphylococcus aureus [3] = assay: microbe, parasite or virus in culture; conditions: ATCC 29213
[4] = buffer, 18 h, pH 7.4
Streptococcus pneumoniae = assay: microbe, parasite or virus in culture
Bacillus subtilis = assay: microbe, parasite or virus in culture
Vero = assay: cells; conditions: Chlorocebus sabaeus, 72 h
Staphylococcus aureus [5] = assay: microbe, parasite or virus in culture; conditions: NRS70
Streptococcus pyogenes = assay: microbe, parasite or virus in culture
Burkholderia cepacia = assay: microbe, parasite or virus in culture
Klebsiella pneumoniae = assay: microbe, parasite or virus in culture
Acinetobacter = assay: microbe, parasite or virus in culture
Proteus mirabilis = assay: microbe, parasite or virus in culture
Proteus vulgaris = assay: microbe, parasite or virus in culture
[6] = Metabolic stability in CD-1 mouse liver microsomes assessed as compound remaining after 90 mins in presence of NADPH; format: ADME, Microsome; conditions: read-out: Stability
Plasma = conditions: human, 4 h, 10 µM

CC1C(NC(=O)Nc2ccc(F)c(F)c2F)CC2CC1C2(C)C (configuration not stated)
solubility at 18 h (physchem): < 0.1 µg/mL | fraction unbound at 4 h, 10 µM (in vitro): 0.008

Cc1cc(NC(=O)NC2C3CC4CC(C3)CC2C4)no1 (configuration not stated)
MIC (Pseudomonas aeruginosa): > 200 µg/mL | MIC (Enterococcus faecalis): > 200 µg/mL | MIC (Escherichia coli): > 200 µg/mL | MIC [1]: 6.25 µg/mL (≈ 22.7 µM) | IC50 [2]: 0.005 µM | MIC (Bacillus anthracis): > 200 µg/mL | MIC (Staphylococcus aureus [3]): > 200 µg/mL | solubility [4]: 25.5 µg/mL (≈ 92.6 µM) | MIC (Streptococcus pneumoniae): > 200 µg/mL | MIC (Bacillus subtilis): > 200 µg/mL | IC50 (Vero): > 48 µg/mL | MIC (Staphylococcus aureus [5]): > 200 µg/mL | MIC (Streptococcus pyogenes): > 200 µg/mL | MIC (Burkholderia cepacia): > 200 µg/mL | MIC (Klebsiella pneumoniae): > 200 µg/mL | MIC (Acinetobacter): > 200 µg/mL | MIC (Proteus mirabilis): > 200 µg/mL | MIC (Proteus vulgaris): > 200 µg/mL

O=C(Nc1nnc(C2CCC2)o1)NC1C2CC3CC(C2)CC1C3 (configuration not stated)
MIC (Pseudomonas aeruginosa): > 200 µg/mL | MIC (Enterococcus faecalis): > 200 µg/mL | MIC (Escherichia coli): > 200 µg/mL | MIC [1]: 0.78 µg/mL (≈ 2.47 µM) | IC50 [2]: 0.382 µM | MIC (Bacillus anthracis): 25 µg/mL (≈ 79 µM) | MIC (Staphylococcus aureus [3]): > 200 µg/mL | MIC (Streptococcus pneumoniae): 100 µg/mL (≈ 316 µM) | MIC (Bacillus subtilis): 50 µg/mL (≈ 158 µM) | IC50 (Vero): 36 µg/mL (≈ 114 µM) | MIC (Staphylococcus aureus [5]): > 200 µg/mL | MIC (Streptococcus pyogenes): 100 µg/mL (≈ 316 µM) | MIC (Burkholderia cepacia): 50 µg/mL (≈ 158 µM) | MIC (Klebsiella pneumoniae): > 200 µg/mL | MIC (Acinetobacter): > 200 µg/mL | MIC (Proteus mirabilis): > 200 µg/mL | remaining at […] [6]: > 30% | MIC (Proteus vulgaris): > 200 µg/mL

O=C(Nc1ccc(F)c(F)c1F)NC12CC3CC(CC(C3)C1)C2
solubility at 18 h (physchem): < 0.1 µg/mL

O=C(Nc1ncco1)NC12CC3CC(CC(C3)C1)C2
MIC (Pseudomonas aeruginosa): > 200 µg/mL | MIC (Enterococcus faecalis): > 200 µg/mL | MIC (Escherichia coli): > 200 µg/mL | MIC [1]: 6.25 µg/mL (≈ 23.9 µM) | IC50 [2]: 0.948 µM | MIC (Bacillus anthracis): > 200 µg/mL | MIC (Staphylococcus aureus [3]): > 200 µg/mL | solubility [4]: 4.4 µg/mL (≈ 16.8 µM) | MIC (Streptococcus pneumoniae): > 200 µg/mL | MIC (Bacillus subtilis): > 200 µg/mL | IC50 (Vero): 22 µg/mL (≈ 84.2 µM) | MIC (Staphylococcus aureus [5]): > 200 µg/mL | MIC (Streptococcus pyogenes): > 200 µg/mL | MIC (Burkholderia cepacia): > 200 µg/mL | MIC (Klebsiella pneumoniae): > 200 µg/mL | MIC (Acinetobacter): > 200 µg/mL | MIC (Proteus mirabilis): > 200 µg/mL | MIC (Proteus vulgaris): > 200 µg/mL

CC(C)c1nnc(NC(=O)NC23CC4CC(CC(C4)C2)C3)o1
MIC (Pseudomonas aeruginosa): > 200 µg/mL | MIC (Enterococcus faecalis): > 200 µg/mL | MIC (Escherichia coli): > 200 µg/mL | MIC [1]: 1.56 µg/mL (≈ 5.12 µM) | IC50 [2]: 0.557 µM | MIC (Bacillus anthracis): > 200 µg/mL | MIC (Staphylococcus aureus [3]): > 200 µg/mL | solubility [4]: 9.54 µg/mL (≈ 31.3 µM) | MIC (Streptococcus pneumoniae): > 200 µg/mL | MIC (Bacillus subtilis): > 200 µg/mL | IC50 (Vero): 11 µg/mL (≈ 36.1 µM) | MIC (Staphylococcus aureus [5]): > 200 µg/mL | MIC (Streptococcus pyogenes): > 200 µg/mL | PPB (Plasma): 99.3% | MIC (Burkholderia cepacia): > 200 µg/mL | MIC (Klebsiella pneumoniae): > 200 µg/mL | MIC (Acinetobacter): > 200 µg/mL | MIC (Proteus mirabilis): > 200 µg/mL | MIC (Proteus vulgaris): > 200 µg/mL

Cc1csc(NC(=O)NC2C3CC4CC(C3)CC2C4)n1 (configuration not stated)
MIC (Pseudomonas aeruginosa): > 200 µg/mL | MIC (Enterococcus faecalis): > 200 µg/mL | MIC (Escherichia coli): > 200 µg/mL | MIC [1]: 1.56 µg/mL (≈ 5.35 µM) | IC50 [2]: 0.71 µM | MIC (Bacillus anthracis): > 200 µg/mL | MIC (Staphylococcus aureus [3]): 200 µg/mL (≈ 686 µM) | MIC (Streptococcus pneumoniae): 100 µg/mL (≈ 343 µM) | MIC (Bacillus subtilis): > 200 µg/mL | IC50 (Vero): 60 µg/mL (≈ 206 µM) | MIC (Staphylococcus aureus [5]): 100 µg/mL (≈ 343 µM) | MIC (Streptococcus pyogenes): 200 µg/mL (≈ 686 µM) | MIC (Burkholderia cepacia): > 200 µg/mL | MIC (Klebsiella pneumoniae): > 200 µg/mL | MIC (Acinetobacter): > 200 µg/mL | MIC (Proteus mirabilis): > 200 µg/mL | MIC (Proteus vulgaris): > 200 µg/mL

CC(C)(C)c1cc(NC(=O)NC23CC4CC(CC(C4)C2)C3)no1
MIC (Pseudomonas aeruginosa): > 200 µg/mL | MIC (Enterococcus faecalis): 100 µg/mL (≈ 315 µM) | MIC (Escherichia coli): 100 µg/mL (≈ 315 µM) | MIC [1]: 1.56 µg/mL (≈ 4.91 µM) | IC50 [2]: 0.056 µM | MIC (Bacillus anthracis): > 200 µg/mL | MIC (Staphylococcus aureus [3]): 100 µg/mL (≈ 315 µM) | MIC (Streptococcus pneumoniae): > 200 µg/mL | MIC (Bacillus subtilis): > 200 µg/mL | IC50 (Vero): 6 µg/mL (≈ 18.9 µM) | MIC (Staphylococcus aureus [5]): 200 µg/mL (≈ 630 µM) | MIC (Streptococcus pyogenes): > 200 µg/mL | MIC (Klebsiella pneumoniae): > 200 µg/mL | MIC (Acinetobacter): > 200 µg/mL | MIC (Proteus mirabilis): > 200 µg/mL | remaining at […] [6]: > 30% | MIC (Proteus vulgaris): > 200 µg/mL

CCn1nc(NC(=O)NC2C3CC4CC(C3)CC2C4)cc1C (configuration not stated)
MIC (Pseudomonas aeruginosa): > 200 µg/mL | MIC (Enterococcus faecalis): > 200 µg/mL | MIC (Escherichia coli): > 200 µg/mL | MIC [1]: 3.13 µg/mL (≈ 10.3 µM) | IC50 [2]: 2.46 µM | MIC (Bacillus anthracis): > 200 µg/mL | MIC (Staphylococcus aureus [3]): 100 µg/mL (≈ 331 µM) | MIC (Streptococcus pneumoniae): > 200 µg/mL | MIC (Bacillus subtilis): > 200 µg/mL | IC50 (Vero): 163 µg/mL (≈ 539 µM) | MIC (Staphylococcus aureus [5]): > 200 µg/mL | MIC (Streptococcus pyogenes): > 200 µg/mL | MIC (Burkholderia cepacia): > 200 µg/mL | MIC (Klebsiella pneumoniae): > 200 µg/mL | MIC (Acinetobacter): > 200 µg/mL | MIC (Proteus mirabilis): > 200 µg/mL | MIC (Proteus vulgaris): > 200 µg/mL

Source: ChEMBL document CHEMBL2390858, “Design, synthesis and anti-tuberculosis activity of 1-adamantyl-3-heteroaryl ureas with improved in vitro pharmacokinetic properties” (Bioorg Med Chem, 2013)
